Test systems include A498; COLO 205; EKVX; HCT-15; HT-29; LOX IMVI; Malme-3M; NCI-H522; OVCAR-4; OVCAR-8; RXF 393; SK-MEL-28; SK-OV-3; SN12C; SNB-75; U-251; Hs-578T; NCI/ADR-RES; PC-3.
Assay in all cases: growth of human tumour cells (NCI), 48 h

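Compound exposure: 48 hours, 5 concentrations, 96-well plates. GI50 is the concentration that inhibits growth by half.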 Active and inactive are the calls of the source. No stated cut-off is given here; in the data, active = GI50 up to about 1.1 µM and inactive = higher.

With `O=c1[nH]c(=O)n(C2OC(CO)C(O)C2O)cc1OCc1ccccc1` (stereo not drawn), the GI50 was > 100 µM (inactive) in the test on A498; > 64.7 µM (inactive) with COLO 205; > 100 µM (inactive) in the test with EKVX; greater than 59 µM in the test on HCT-15; > 100 µM (inactive) in the test with HT-29; > 31.6 µM (inactive) in the test on LOX IMVI. Besides, the GI50 in the test with Malme-3M is > 100 µM (inactive); in the test on NCI-H522, > 100 µM (inactive); in the test with OVCAR-4 it was > 100 µM (inactive); in the test with OVCAR-8 it was > 77.6 µM (inactive); with RXF 393 it was > 57.4 µM (inactive); with SK-MEL-28 it was > 100 µM (inactive). Further, the GI50 with SK-OV-3 is > 100 µM (inactive); in the test on SN12C, > 100 µM (inactive); with SNB-75 it was > 100 µM (inactive); with U-251, > 58.2 µM (inactive).

As for `O=C1NC2(CCCCCC2)C2CCCCCCC12O` (stereo not drawn), the GI50 in the test with A498 was > 100 µM (inactive); in the test on COLO 205, > 100 µM (inactive); with EKVX, > 100 µM (inactive); with HCT-15 it was greater than 100 µM; in the test on HT-29, > 100 µM (inactive); in the test with LOX IMVI, > 100 µM (inactive). Also, the GI50 in the test with Malme-3M, in the test with NCI-H522, with OVCAR-4, with OVCAR-8, in the test with RXF 393 and in the test with SK-MEL-28 was > 100 µM (inactive) throughout. For the same compound, the GI50 in the test on SK-OV-3, in the test on SN12C, with SNB-75 and with U-251 was > 100 µM (inactive) throughout.

With `c1ccc(-c2nnn3c2NC2=C(CCCC2)C3c2ccccc2)cc1` (stereo not drawn), the GI50 in the test with COLO 205 is 16.5 µM (inactive); in the test on HCT-15, 1.54 µM; with HT-29, 15.1 µM (inactive); in the test on Hs-578T, 24.9 µM (inactive); in the test on LOX IMVI it was 13.7 µM (inactive); in the test with NCI-H522 it was 5.68 µM (inactive). In addition, the GI50 is 21.7 µM (inactive) with NCI/ADR-RES; 2.06 µM (inactive) in the test on OVCAR-8; 16.9 µM (inactive) in the test on PC-3; 17.1 µM (inactive) in the test with RXF 393; 22.1 µM (inactive) in the test on SK-OV-3; 21.1 µM (inactive) in the test on SN12C. Also, the GI50 in the test on U-251 is 12.5 µM (inactive).

As to `OC1NC2CC3NC(O)C(O)NC3CC2NC1O` (stereo not drawn), the GI50 was > 100 µM (inactive) in the test on COLO 205; > 100 µM (inactive) in the test with EKVX; greater than 100 µM in the test on HCT-15; > 100 µM (inactive) in the test on HT-29; > 100 µM (inactive) in the test on Hs-578T; > 100 µM (inactive) in the test on LOX IMVI. The GI50 in the test on Malme-3M, in the test with NCI-H522, with NCI/ADR-RES, in the test with OVCAR-4, in the test with OVCAR-8 and in the test with PC-3 was > 100 µM (inactive) throughout. Besides, the GI50 in the test with RXF 393, with SK-MEL-28, with SK-OV-3, in the test on SN12C, in the test on SNB-75 and in the test with U-251 was > 100 µM (inactive) throughout.

For `C=CCC1=C(C)C[C@@H]2CCC(=O)C=C12`, the GI50 was > 100 µM (inactive) in the test with A498; > 100 µM (inactive) in the test on COLO 205; > 100 µM (inactive) with EKVX; greater than 100 µM in the test on HCT-15; > 100 µM (inactive) with HT-29; > 100 µM (inactive) with LOX IMVI. The GI50 in the test on Malme-3M, in the test on NCI-H522, in the test on OVCAR-4, in the test with OVCAR-8, with RXF 393 and in the test with SK-MEL-28 was > 100 µM (inactive) throughout. Also, the GI50 in the test on SK-OV-3, with SN12C, in the test on SNB-75 and with U-251 was > 100 µM (inactive) each time.

In the case of `COc1ccc(O)cc1C(O)c1ccccc1` (stereo not drawn), the GI50 was > 100 µM (inactive) in the test on A498; > 100 µM (inactive) in the test with COLO 205; > 100 µM (inactive) in the test on EKVX; greater than 100 µM in the test with HCT-15; > 100 µM (inactive) in the test on HT-29; > 100 µM (inactive) with LOX IMVI. Besides, the GI50 in the test with Malme-3M, with NCI-H522, in the test with OVCAR-4, in the test on OVCAR-8, with RXF 393 and in the test with SK-MEL-28 was > 100 µM (inactive) in each case. For the same compound, the GI50 in the test on SK-OV-3, with SN12C, in the test on SNB-75 and with U-251 was > 100 µM (inactive) in each case.

Turning to `Brc1cccc(/C=N/C23CC4CC(CC(C4)C2)C3)c1`, the GI50 in the test with A498 is > 100 µM (inactive); in the test with COLO 205, > 100 µM (inactive); in the test with EKVX, > 100 µM (inactive); in the test with HCT-15, greater than 100 µM; in the test on HT-29 it was > 100 µM (inactive); in the test on LOX IMVI, > 100 µM (inactive). The GI50 in the test on Malme-3M, in the test on NCI-H522, in the test with OVCAR-4, in the test with OVCAR-8, with RXF 393 and in the test with SK-MEL-28 was > 100 µM (inactive) each time. The GI50 in the test on SK-OV-3, in the test with SN12C, in the test on SNB-75 and in the test on U-251 was > 100 µM (inactive) each time.

Regarding `C=CCNC(=S)N/C=C1\C(=O)Oc2ccccc2C1=O`, the GI50 with A498 was 56.8 µM (inactive); in the test on COLO 205, > 100 µM (inactive); in the test on EKVX, > 100 µM (inactive); in the test with HCT-15, 60.5 µM; with HT-29, > 100 µM (inactive); with LOX IMVI, 95.5 µM (inactive). For the same compound, the GI50 with Malme-3M was 27.4 µM (inactive); in the test on NCI-H522 it was 65.6 µM (inactive); in the test on OVCAR-4, > 100 µM (inactive); in the test with OVCAR-8, 58.5 µM (inactive); with RXF 393, 19.3 µM (inactive); in the test on SK-MEL-28 it was > 100 µM (inactive). Also, the GI50 is 44.4 µM (inactive) with SK-OV-3, 46.5 µM (inactive) in the test with SN12C, 18.7 µM (inactive) with SNB-75 and 59.8 µM (inactive) in the test on U-251.

Take `N#CC(/C(=N/NC(=N)N)C(=O)Nc1ccccc1[N+](=O)[O-])c1nc(-c2ccc([N+](=O)[O-])cc2)cs1` (stereo not drawn): the GI50 in the test with A498 was > 100 µM (inactive); in the test with COLO 205, > 100 µM (inactive); with EKVX it was > 100 µM (inactive); in the test on HCT-15, greater than 100 µM; in the test with HT-29 it was > 100 µM (inactive); with LOX IMVI it was > 100 µM (inactive). Moreover, the GI50 in the test with Malme-3M, with NCI-H522, with OVCAR-4, with OVCAR-8, with RXF 393 and with SK-MEL-28 was > 100 µM (inactive) throughout. Moreover, the GI50 in the test with SK-OV-3, in the test on SN12C, with SNB-75 and in the test with U-251 was > 100 µM (inactive) in each case.

With `O=C(C(=O)c1cc2ccccc2[nH]1)c1cc2ccccc2[nH]1`, the GI50 with A498 is > 347 µM (inactive); in the test on COLO 205, > 347 µM (inactive); in the test with EKVX, > 347 µM (inactive); with HCT-15, 94.2 µM; with HT-29, > 347 µM (inactive); in the test on LOX IMVI it was > 347 µM (inactive). Moreover, the GI50 in the test on Malme-3M was 152 µM (inactive); with NCI-H522, 13.8 µM (inactive); in the test on OVCAR-4 it was 58.3 µM (inactive); in the test with OVCAR-8, > 224 µM (inactive); in the test with RXF 393, 91.4 µM (inactive); in the test with SK-MEL-28, 149 µM (inactive). Besides, the GI50 was > 347 µM (inactive) in the test with SK-OV-3, 237 µM (inactive) with SN12C, > 347 µM (inactive) with SNB-75 and > 347 µM (inactive) in the test with U-251.

`Cc1c2c(C#N)nccc2c(C)c2c1c1ccccc1n2Cc1ccccc1`: the GI50 in the test with COLO 205 is > 100 µM (inactive); in the test on EKVX, 3.79 µM (inactive); in the test on HCT-15, greater than 100 µM; with HT-29, > 100 µM (inactive); with Hs-578T it was 88.5 µM (inactive); in the test with LOX IMVI, > 100 µM (inactive). Moreover, the GI50 in the test with Malme-3M, in the test with NCI/ADR-RES, in the test with OVCAR-4, with OVCAR-8, in the test on PC-3 and in the test with RXF 393 was > 100 µM (inactive) throughout. Also, the GI50 is > 100 µM (inactive) with SK-MEL-28; > 100 µM (inactive) in the test with SK-OV-3; > 100 µM (inactive) with SN12C; 57.8 µM (inactive) in the test on SNB-75; > 100 µM (inactive) in the test on U-251.

In the case of `Cc1c(Cl)cccc1NC(=O)C(=O)C1C(=O)CC(C)(C)CC1=O`, the GI50 was > 100 µM (inactive) in the test on A498; > 100 µM (inactive) in the test with COLO 205; > 100 µM (inactive) in the test on EKVX; greater than 100 µM with HCT-15; > 100 µM (inactive) in the test with HT-29; > 100 µM (inactive) in the test with LOX IMVI. Also, the GI50 in the test with Malme-3M, in the test on NCI-H522, with OVCAR-4, in the test with OVCAR-8, with RXF 393 and in the test with SK-MEL-28 was > 100 µM (inactive) throughout. In addition, the GI50 in the test with SK-OV-3, with SN12C, in the test with SNB-75 and in the test with U-251 was > 100 µM (inactive) each time.

As to `COc1ccc(C2=Nc3ccccc3N=C(SC)C2)cc1`, the GI50 in the test with A498 was > 100 µM (inactive); in the test on COLO 205, 51.3 µM (inactive); with EKVX, 41 µM (inactive); in the test on HCT-15 it was 33.7 µM; in the test with HT-29, 38.5 µM (inactive); with LOX IMVI it was 16.9 µM (inactive). The GI50 is > 100 µM (inactive) with Malme-3M; 22.9 µM (inactive) in the test with NCI-H522; 48.5 µM (inactive) in the test with OVCAR-4; 59.3 µM (inactive) with OVCAR-8; 62.5 µM (inactive) with RXF 393; > 100 µM (inactive) in the test with SK-MEL-28. In addition, the GI50 in the test on SK-OV-3 is > 100 µM (inactive); in the test with SN12C, 66.7 µM (inactive); in the test with SNB-75 it was 74 µM (inactive); with U-251, 32.2 µM (inactive).

(Values after ChEMBL document CHEMBL1201862, “PubChem BioAssay data set” (2004).)
